The record followed here is patent publication US10221163B2 (priority 2015, dated 2019).

Read-outs that look alike come from different tables or passages of the source.

One series addresses IMP-1 (Serratia marcescens, UniProt P52699). Briefly: biochemical. Type of series: biochemical. The settings on record: fluorescence assay, CCF2-FA substrate, 2 pM enzyme, 2 hours at 25° C.; read-out: IMP-1 IC50. The method in brief: (§1)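 Two-hour, 25° C incubation of enzyme with inhibitor and CCF2-FA (7-hydroxycoumarin–cephalosporin–fluorescein). Fluorescence read-out; IC50 via 4-parameter fit.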

For the next series, the target named is NDM-1 (Klebsiella pneumoniae, UniProt C7C422). As to the kind of experiment: biochemical. In kind it is biochemical. As to conditions: fluorescence assay, CCF2-FA substrate, 1 pM enzyme, 2 hours at 25° C.; read-out: NDM-1 IC50. The method in brief:
as §1

A further series concerns the target VIM-1 (Pseudomonas aeruginosa (strain ATCC 15692 / DSM 22644 / CIP 104116 / JCM 14847 / LMG 12228 / 1C / PRS 101 / PAO1), UniProt A0A0F7KYQ8). As to the kind of experiment: biochemical. As to conditions: CCF2-FA substrate, 30 pM enzyme, 2 hours at 25° C. The method in brief:
as §1

Series [1] concerns Escherichia coli expressing NDM-1 (CLB30005, CLB30016). In kind it is cell-based. As to conditions: with imipenem 1 μg/ml; for Escherichia coli MITC95: NDM-1 strain, 95% inhibition of growth; for Escherichia coli expressing NDM-1 (CLB30016) MITC95: 95% inhibition of bacterial growth. A digest of the protocol: (§2)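 Imipenem 1 μg/ml + inhibitor; MBL-expressing clinical strains in 1.1×CAMHB, inoculum from saline suspension diluted 1:100; 35° C, 22–24 h; absorbance read-out.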

Series [2] relates to Klebsiella pneumoniae expressing VIM-1 (IHMA599644). In kind it is cell-based. As to conditions: for Klebsiella pneumoniae MITC95: VIM-1 strain IHMA599644, with imipenem 1 μg/ml, 95% inhibition of growth; for Klebsiella pneumoniae expressing VIM-1 (IHMA599644) MITC95: with imipenem 1 μg/ml, 95% inhibition of bacterial growth. A digest of the protocol: as §2
The test system of series [3] is Serratia marcescens expressing IMP-1 (CL5741). In kind it is cell-based. The settings on record: for Serratia marcescens MITC95: IMP-1 strain CL5741, with imipenem 1 μg/ml, 95% inhibition of growth; for Serratia marcescens expressing IMP-1 (CL5741) MITC95: with imipenem 1 μg/ml, 95% inhibition of bacterial growth. The method in brief:
as §2

The subject of series [4] is Pseudomonas aeruginosa efflux+ (MB9798), IMP-1. In kind it is cell-based. The settings on record: concentration restoring susceptibility to imipenem at 2 μg/mL in the presence of a class A, C, D serine β-lactamase inhibitor closely related to relebactam. The method in brief:
(§3)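 P. aeruginosa PAO1-derived IMP-1 strains, efflux+ MB9798 and efflux− MB9799, tested by standard microbroth MIC with imipenem and/or ceftazidime fixed, usually at CLSI breakpoint, plus fixed class A/C β-lactamase inhibitor against AmpC. Inhibitor titrated; concentration restoring susceptibility recorded; MB9798/MB9799 fold difference indicates efflux.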

The subject of series [5] is Pseudomonas aeruginosa efflux− (MB9799), IMP-1. In kind it is cell-based. As to conditions: concentration restoring susceptibility to imipenem at 2 μg/mL in the presence of a class A, C, D serine β-lactamase inhibitor closely related to relebactam. The method in brief:
as §3

In series [6] the test system is Pseudomonas aeruginosa MB9798 vs MB9799. The settings on record: ratio MITC95 PA_9798/MITC95 PA_9799. A digest of the protocol:
as §3

Where [7] appears, read: fluorescence assay, read-out: VIM-1 IC50.

Chain of IMP-1 (P52699 whole entry, looked up, species assumed): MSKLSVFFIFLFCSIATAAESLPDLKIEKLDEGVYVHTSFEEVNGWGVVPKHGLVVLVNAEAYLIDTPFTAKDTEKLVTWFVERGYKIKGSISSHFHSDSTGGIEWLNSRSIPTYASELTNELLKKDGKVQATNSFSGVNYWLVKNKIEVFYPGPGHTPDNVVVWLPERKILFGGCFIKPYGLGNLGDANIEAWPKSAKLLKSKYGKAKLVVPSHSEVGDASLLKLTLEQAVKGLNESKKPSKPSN
Chain of NDM-1 (C7C422 whole entry, looked up, species assumed): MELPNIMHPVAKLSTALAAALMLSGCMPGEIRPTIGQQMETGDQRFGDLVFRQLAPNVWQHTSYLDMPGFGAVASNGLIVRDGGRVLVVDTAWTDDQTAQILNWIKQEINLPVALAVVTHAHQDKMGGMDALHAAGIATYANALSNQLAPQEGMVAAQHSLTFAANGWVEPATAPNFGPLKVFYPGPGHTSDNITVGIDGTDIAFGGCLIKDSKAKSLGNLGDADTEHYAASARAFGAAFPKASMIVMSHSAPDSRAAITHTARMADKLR

In the case of `Nc1nc2c(-c3ccc(S(=O)(=O)NC[C@@H]4CCNC4)c(S(N)(=O)=O)c3-c3nn[nH]n3)cccc2[nH]1` [Example 263, (R)-4-(2-amino-1H-benzo[d]imidazol-4-yl)-N1-(pyrrolidin-3-ylmethyl)-3-(2H-tetrazol-5-yl)benzene-1,2-disulfonamide], the IC50 is 0.864 nM on IMP-1; 0.0461 nM on NDM-1; 0.205 nM at VIM-1 (VIM-1 IC50, fluorescence assay). In addition, the “Escherichia coli MITC95” value in series [1] was 0.3906 µM. The “Klebsiella pneumoniae MITC95” value in [2] turned out to be 1.563 µM. In addition, the “Serratia marcescens MITC95” value in [3] stood at 0.7813 µM. In addition, the “P. aeruginosa expressing IMP-1, efflux + (MB9798) MITC95” value in series [4] was 0.7813 µM. The “P. aeruginosa expressing IMP-1, efflux − (MB9799) MITC95” value in series [5] is 0.7813 µM. Moreover, in series [6], the Efflux ratio is 1.00.
Consider `NCCCNS(=O)(=O)c1ccc(-c2cccc3[nH]c(N)nc23)c(-c2nn[nH]n2)c1S(N)(=O)=O` [Example 182, 4-(2-amino-1H-benzo[d]imidazol-4-yl)-N1-(3-aminopropyl)-3-(2H-tetrazol-5-yl)benzene-1,2-disulfonamide], for which the IC50 at IMP-1 was found to be 0.453 nM; at NDM-1, 0.0393 nM; against VIM-1 (VIM-1 IC50, fluorescence assay) it was 0.0904 nM. Further, the “Escherichia coli expressing NDM-1 (CLB30016) MITC95” value in [1] turned out to be 0.2578 µM. In series [2], the “Klebsiella pneumoniae expressing VIM-1 (IHMA599644) MITC95” value stood at 0.6875 µM. Moreover, the “Serratia marcescens expressing IMP-1 (CL5741) MITC95” value in series [3] was found to be 0.5573 µM. In addition, in series [4], the “P. aeruginosa expressing IMP-1, efflux + (MB9798) MITC95” value was determined as 0.3438 µM. Besides, the “P. aeruginosa expressing IMP-1, efflux − (MB9799) MITC95” value in [5] turned out to be 0.4271 µM. Also, the Efflux ratio in series [6] is 0.80.
As for `Nc1nc2c(-c3ccc(S(=O)(=O)NCC4(O)CCNCC4)c(S(N)(=O)=O)c3-c3nnn[nH]3)cccc2s1` [Example 86, 4-(2-aminobenzo[d]thiazol-4-yl)-N^1-((4-hydroxypiperidin-4-yl)methyl)-3-(1H-tetrazol-5-yl)benzene-1,2-disulfonamide], the IC50 on IMP-1 was 0.129 nM; on NDM-1, 0.0275 nM; on VIM-1 (setting [7]), 0.0756 nM. For the same compound, the “Escherichia coli expressing NDM-1 (CLB30016) MITC95” value in [1] was determined as 1.563 µM. Moreover, the “Klebsiella pneumoniae expressing VIM-1 (IHMA599644) MITC95” value in [2] came out at 6.25 µM. Moreover, the “Serratia marcescens expressing IMP-1 (CL5741) MITC95” value in [3] is 1.563 µM. The “P. aeruginosa expressing IMP-1, efflux + (MB9798) MITC95” value in [4] was 0.7813 µM. Besides, in series [5], the “P. aeruginosa expressing IMP-1, efflux − (MB9799) MITC95” value is 1.563 µM. The Efflux ratio in series [6] worked out at 0.50.
With `NC[C@H](CO)NS(=O)(=O)c1ccc(-c2cccc(N)n2)c(-c2nn[nH]n2)c1S(N)(=O)=O` [Example 364, (R)—N^1-(1-amino-3-hydroxypropan-2-yl)-4-(6-aminopyridin-2-yl)-3-(2H-tetrazol-5-yl)benzene-1,2-disulfonamide], the results for the IC50 on IMP-1, on NDM-1 and at VIM-1 (setting [7]) were 14.6 nM, 3.25 nM and 3.24 nM, respectively. In series [1], the “Escherichia coli MITC95” value stood at 3.125 µM. In series [2], the “Klebsiella pneumoniae MITC95” value was found to be 6.25 µM. In addition, the “Serratia marcescens MITC95” value in series [3] came out at 3.125 µM. In addition, in [4], the “P. aeruginosa expressing IMP-1, efflux + (MB9798) MITC95” value was 3.125 µM. The “P. aeruginosa expressing IMP-1, efflux − (MB9799) MITC95” value in [5] turned out to be 1.563 µM. In addition, the Efflux ratio in series [6] was found to be 2.00.
As to `Nc1nc2c(-c3ccc(S(=O)(=O)N[C@@H]4CNC[C@@H]4N)c(S(N)(=O)=O)c3-c3nn[nH]n3)cccc2[nH]1` [Example 240], the IC50 at IMP-1 is 0.745 nM; at NDM-1, 0.0569 nM; against VIM-1 (VIM-1 IC50, fluorescence assay), 0.169 nM. Further, the “Escherichia coli expressing NDM-1 (CLB30016) MITC95” value in [1] came out at 0.1953 µM. Also, the “Klebsiella pneumoniae expressing VIM-1 (IHMA599644) MITC95” value in series [2] is 1.563 µM. The “Serratia marcescens expressing IMP-1 (CL5741) MITC95” value in [3] is 0.7813 µM. For the same compound, in series [4], the “P. aeruginosa expressing IMP-1, efflux + (MB9798) MITC95” value came to 0.7813 µM. Moreover, the “P. aeruginosa expressing IMP-1, efflux − (MB9799) MITC95” value in series [5] was found to be 0.7813 µM. In series [6], the Efflux ratio was determined as 1.00.

The term IC50 denotes the concentration that gives 50% inhibition.
